Assays:
[1] = system: citrate synthase; experiment: Citrate synthase activity in left ventricular myocardium; format: in vivo, mouse; conditions: SRF HKO left ventricular myocardium at D50, NR diet
Protocol: SRF^HKO and control (Sf/Sf) mice were administered either rodent maintenance SAFE A04 diet containing 3.10% crude fat. 16.10% crude proteins. 26% starch and 1.9% sugar (Scientific Animal Food Engineering, Paris, France) or SAFE # A04 diet supplemented with NR. NR was provided by Chromadex under brand name NIAGEN (Irvine Calif. USA). The soft pellets were manually prepared every 5 days by mixing 1.65 g of NR into 500 g of powdered SAFE A04 diet and 235 ml of water to reach 2.24 mg of NR/g (wet weight). Control diet was prepared in the same way omitting NR. Mice had ad libitum access to food and water. […]
Frozen tissue samples were weighed, homogenized (Bertin Precellys 24) in ice-cold buffer (50 mg/ml) containing HEPES 5 mM (pH 8.7), EGTA 1 mM, DTT 1 mM and 0.1% Triton X-100. Citrate synthase (CS), activity was determined in homogenized ventricles as previously described (Kuznetsov et al. (2008). Analysis of mitochondrial function in situ in permeabilized muscle fibers, tissues and cells. Journal 3, 965-976). Activities of enzymes were determined by standard spectrophotometric assays. Briefly, for citrate synthase (CS), approximately 0.5 μg of protein were added in 1 ml of Buffer M (Trizma 100 mM (pH 8), 5,5′-dittiobis-(2-Nitrobenzenoic acid) 0.1 mM, Acetyl-CoA 0.3 mM, oxaloacetatic acid 0.5 mM) and the absorbance at 412 nm was measured during 3 min. […]

[2] = system: Lmna^H222P/H222P mice; experiment: NAD+ content quantification in heart and liver of treated Lmna H222P/H222P mice; format: in vivo, mouse; conditions: NR complemented diet 400 mg/kg/day, from 17 weeks of age for 9 weeks, vs chow-diet
Protocol: Mice were bred in an accredited animal facility (accreditation number: C-75-13-08). All experiments on mice were approved by the Comité d'éthique en expérimentation animate Charles Darwin No 5. Mice Lmna^H222P/H222P were backcrossed 8 times to 129S2/SvPasOrlRj strain mice to obtain pure genetic background. Male mice used for the studies were maintained under a 12 h light/12 h dark cycle at constant temperature (23° C.) with free access to food and water. Nicotinamide riboside (NR) complementation: Animals at 17 weeks of age were fed for 9 weeks with either a chow diet (A04: Scientific Animal Food & Engineering) or a chow diet complemented with 0.25% of NR (kindly provided by ChromaDex, Inc. California) corresponding to a dose of 400 mg/kg/day for a mouse weighing 25 g eating 4 g of food per day. […]
Fresh mouse tissues were homogenized and processed according to previous report (Sander B J, Oelshlegel F J & Brewer G J (1976) Quantitative analysis of pyridine nucleotides in red blood cells: a single-step extraction procedure. Anal. Biochem. 71: 29-36). The concentration of NAD+ in heart tissue was determined using a spectrophotometric assay at 550 nm based on an alcohol dehydrogenase cycling reaction, in which a Methyl Thiazolyl Tetrazolium (MTT) is reduced to Formazan. […]

Question: Which citrate synthase activity [1] does the source give for NC(=O)c1ccc[n+]([C@@H]2O[C@H](CO)[C@@H](O)[C@H]2O)c1 [NR, nicotinamide riboside] here?
Answer: protected against the decline

Question: And the “NAD+ content in liver and heart” value [2]?
Answer: increase of their NAD+ content in both the liver and the heart

Reference: patent US20190350955A1, “METHODS AND PHARMACEUTICAL COMPOSITIONS FOR THE TREATMENT OF CARDIOMYOPATHIES” (INSERM (Institut National de la Sante et de la Recherche …, priority 2016, published 2019)
